# Assay results: article PMC8568133, “Evaluation of bisphenylthiazoles as a promising class for combating multidrug-resistant fungal infections” (PLoS ONE, 2021)
# Read-outs that look alike come from different tables or passages of the source.
# Experiments:
# MRSA USA300 = experiment: Broth microdilution MIC, initial antibacterial screening; type: cell-based, S. aureus; settings: MRSA USA300
# Method: (§1) The minimum inhibitory concentrations (MICs) of the tested compounds and control drugs against clinically-relevant bacterial strains were determined using the broth microdilution method, according to guidelines outlined by the Clinical and Laboratory Standards Institute (CLSI), or as described previously.
# (§2) Initial screening of the bisphenylthiazoles against Gram-positive and Gram-negative bacteria. Bacterial strains, (except C. difficile that was grown anaerobically on brain heart infusion supplemented agar at 37° C for 48 hours), were grown aerobically overnight on tryptone soy agar plates at 37° C. Afterwards, a bacterial solution equivalent to 0.5 McFarland standard was prepared and diluted in cation-adjusted Mueller-Hinton broth (CAMHB) (for S. aureus, and E. coli) to achieve a bacterial concentration of about 5 × 10^5 CFU/mL. C. difficile was diluted in brain heart infusion supplemented broth, supplemented with yeast extract, hemin and vitamin K to achieve a bacterial concentration of about 5 × 10^5 CFU/mL. Compounds and control drugs were added in the first row of the 96 -well plates, and serially diluted with the corresponding media containing bacteria. Plates were then, incubated aerobi cally at 37° C for 18-20 hours (for S. aureus and E. coli). C. difficile was incubated anaerobically at 37° C for 48 hours. […]
# (§3) the visual growth of bacteria.
# [1] = tested on: C. difficile ATCC BAA1870; experiment: Broth microdilution MIC, initial antibacterial screening (anaerobic); type: cell-based, Clostridioides difficile
# Method: as §1, §2, §3
# [2] = tested on: E. coli JW55031 (tolC-mutant); experiment: microbe, parasite or virus in culture; type: cell-based, Escherichia coli; settings: E. coli JW55031 (tolC-mutant)
# Method: as §1, §2, §3
# [3] = tested on: E. coli BW25113 (wild-type); experiment: Broth microdilution MIC, initial antibacterial screening; type: cell-based, Escherichia coli
# Method: as §1, §2, §3
# Candida albicans = experiment: Antifungal broth microdilution MIC (50% growth inhibition) and MFC; type: cell-based
# Method: (§4) Serial dilutions (from 128 μg/mL to 0.06 μg/mL) of the tested compounds and control drugs (fluconazole, itraconazole and amphotericin) (in triplicates), were screened against clinical isolates of Candida albicans, Candida auris, Candida glabrata, Candida parapsilosis, Candida tropicalis, Candida krusei, Cryptococcus neoformans, Cryptococcus gattii and Aspergillus fumigatus species using the broth microdilution method according to the Clinical and Laboratory Standards Institute guidelines. MICs were determined as the lowest concentration of the compounds that inhibited the fungal growth by 50% after incubation at 35 °C for 24 h (for Candida and Aspergillus), or 48 h (for Cryptococcus). The minimum fungicidal concentration (MFC) of these compounds was tested by plating 4 μL from wells with no growth onto YPD agar plates. The plates were incubated at 37 °C for 24 hours before recording the MFC, which was categorized as the lowest concentration that reduced fungal growth by 99.9% [45]. The experiment was repeated three independent times.
# Candida auris [4] = experiment: as above; type: cell-based
# Method: as §4
# Candida glabrata = experiment: as above; type: cell-based
# Method: as §4
# Candida krusei = experiment: as above; type: cell-based
# Method: as §4
# Candida tropicalis = experiment: as above; type: cell-based; settings: C. tropicalis ATCC 1369
# Method: as §4
# [5] = tested on: Lactobacillus casei ATCC-334; experiment: Broth microdilution MIC against normal human microbiota; type: cell-based; settings: Lactobacillus casei ATCC-334
# Method: (§5) Broth microdilution was utilized to determine the activity of bisphenylthiazoles against the human gut microflora as described elsewhere. A bacterial solution equivalent to 0.5 McFarland standards was prepared and diluted in MRS broth to achieve a bacterial concentration of approximately 5 x 10^5 CFU/mL. Then, compounds/control antifungals (in triplicates), were added to the plates and serially diluted with media containing bacteria. The plates were incubated for 48 hours at 37 °C before recording the MIC values. The experiment was repeated three independent times.
# [6] = tested on: Lactobacillus crispatus HM-370; experiment: as above; type: cell-based; settings: Lactobacillus crispatus HM-370
# Method: as §5
# [7] = tested on: Lactobacillus gasseri HM-400; experiment: as above; type: cell-based; settings: Lactobacillus gasseri HM-400
# Method: as §5
# Cryptococcus gattii = experiment: Antifungal broth microdilution MIC (50% growth inhibition, 48 h); type: cell-based
# Method: as §4
# Cryptococcus neoformans = experiment: as above; type: cell-based
# Method: as §4
# Aspergillus fumigatus = experiment: Antifungal broth microdilution MIC (50% growth inhibition); type: cell-based
# Method: as §4
# Candida parapsilosis = experiment: as above; type: cell-based
# Method: as §4
# [8] = tested on: human colorectal cells (Caco-2); experiment: In vitro cytotoxicity, MTS assay; settings: Caco-2, 24 h exposure, MTS
# Method: (§6) Fig 2 In vitro cytotoxicity assay of bisphenylthiazole compounds 7, 16 and 17 (tested in triplicates at 32, 64 and 128 μg/mL) against: A) human colorectal cells (Caco-2), and B) monkey kidney epithelial cells (Vero) after 24-hours exposure time, using the MTS 3-(4,5-dimethylthiazol-2-yl)-5-(3-carboxymethoxyphenyl)-2-(4-sulfophenyl)-2H-tetrazolium) assay. The data represent the percentage of viable Caco-2 or Vero cells measured as the average absorbance relative to DMSO after exposure to the tested compounds. Dimethyl sulfoxide (DMSO) was used as a negative control. Error bars represent the standard deviation values.
# (§7) To explore the tolerability of bisphenylthiazoles, their cytotoxicity profile was assessed in human colorectal adenocarcinoma (Caco-2) and monkey kidney epithelial cells (Vero) as described earlier. Briefly, compounds were incubated with the cells for 24 hours. Then, cells were incubated with MTS reagent for 3 hours before measuring the absorbance values (OD490). The experiment was repeated in two independent times.
# [9] = tested on: monkey kidney epithelial cells (Vero); experiment: In vitro cytotoxicity, MTS assay
# Method: as §6, §7
# Candida strains = experiment: Minimum fungicidal concentration, summary over Candida strains; type: cell-based; settings: strains of Table 6
# Method: as §4
# Candida auris [10] = experiment: Checkerboard assay of compound 17 with standard antifungals; type: cell-based; settings: for Interpretation of interaction: antifungal combined with compound 17; for MIC Combined, Antifungal: antifungal in combination with compound 17; for MIC: Candidozyma auris, checkerboard, agent alone
# Method: To evaluate the interactions between bisphenylthiazoles and the standard antifungal agents (fluconazole, amphotericin B, 5-fluorocytosine and caspofungin) against 2 C. auris clinical isolates, a standard checkerboard assay was utilized as described in previous studies. The fractional inhibitory concentration index (FICI) was calculated for each interaction. Interactions where the FICI was ≤0.5 were categorized as synergistic (SYN). FICI values of >0.5–1.25 were categorized as additive (ADD). FICI values of >1.25–4 were categorized as indifferent, and FICI values of > 4 were categorized as antagonistic. The experiment was repeated three independent times.
# [11] = Candida auris 381 (azole-sensitive)
# [12] = Candida auris 385 (azole-resistant)
smiles,measurement,setting,value
"Cc1nc(-c2ccc(-c3ccccc3)cc2)sc1-c1nnc(N[C@@H]2CCCC[C@H]2N)o1 (relative stereo) [Compound 16, N-{5-[2-((1,1’-Biphenyl)-4-yl)-4-methylthiazol-5-yl]-1,3,4-oxadiazol-2-yl}cyclo-hexane-trans-1,2-diamine]",MIC,MRSA USA300,64 µg/mL
same,MIC,[1],32 µg/mL
same,MIC,[2],64 µg/mL
same,MIC,[3],>64 µg/mL
same,MIC,Candida albicans,2 µg/mL
same,MIC,Candida albicans; C. albicans ATCC 10231,4 µg/mL
same,MIC,Candida albicans; C. albicans SS5314 (wild-type),1 µg/mL
same,MIC,Candida auris [4]; C. auris 381,1 µg/mL
same,MIC,Candida auris [4]; C. auris 382,2 µg/mL
same,MIC,Candida auris [4]; C. auris 383,1 µg/mL
same,MIC,Candida auris [4]; C. auris 384,1 µg/mL
same,MIC,Candida auris [4]; C. auris 385,2 µg/mL
same,MIC,Candida auris [4]; C. auris 386,1 µg/mL
same,MIC,Candida auris [4]; C. auris 387,2 µg/mL
same,MIC,Candida auris [4]; C. auris 388,1 µg/mL
same,MIC,Candida auris [4]; C. auris 389,2 µg/mL
same,MIC,Candida auris [4]; C. auris 390,1 µg/mL
same,MIC,Candida glabrata; C. glabrata ATCC 66032,1 µg/mL
same,MIC,Candida glabrata; C. glabrata ATCC MYA-2950,1 µg/mL
same,MIC,Candida krusei; C. krusei ATCC 34135,1 µg/mL
same,MIC,Candida krusei; C. krusei CAB 396420,1 µg/mL
same,MIC,Candida tropicalis,4 µg/mL
same,MIC,[5],>128 µg/mL
same,MIC,[6],>128 µg/mL
same,MIC,[7],>128 µg/mL
same,MIC,Cryptococcus gattii; C. gattii NR 43209,1 µg/mL
same,MIC,Cryptococcus gattii; C. gattii NR 43210,1 µg/mL
same,MIC,Cryptococcus neoformans; C. neoformans NR 41298,1 µg/mL
same,MIC,Cryptococcus neoformans; C. neoformans NR 41300,1 µg/mL
same,MIC,Cryptococcus neoformans; C. neoformans NR 48770,1 µg/mL
same,MIC,Aspergillus fumigatus; A. fumigatus NR 35303,4 µg/mL
same,MIC,Aspergillus fumigatus; A. fumigatus NR 35304,4 µg/mL
same,MIC against Aspergillus fumigatus,Aspergillus fumigatus; tested A. fumigatus isolates (Table 5),4 µg/mL
same,MIC,Candida parapsilosis; C. parapsilosis ATCC 22019,1 µg/mL
same,MIC,Candida parapsilosis; C. parapsilosis CAB 502638,1 µg/mL
same,CC50,[8],> 128 µg/mL
same,concentration up to which non-toxic,[8],≤ 64 µg/mL
same,concentration up to which non-toxic,"[9]; Vero, 24 h exposure, MTS",≤ 64 µg/mL
same,times more tolerable than amphotericin B,[9]; relative to amphotericin B,16 times
"C[C@@H]1[C@H](O)[C@@H](C)/C=C/C=C/C=C/C=C/C=C/C=C/C=C/[C@H](O[C@@H]2O[C@H](C)[C@@H](O)[C@H](N)[C@@H]2O)C[C@@H]2O[C@](O)(C[C@@H](O)C[C@@H](O)[C@H](O)CC[C@@H](O)C[C@@H](O)CC(=O)O[C@H]1C)C[C@H](O)[C@H]2C(=O)O [Amphotericin B, reference compound]",MFC,"Candida albicans; Candida albicans, ATCC10231, C. albicans ATCC 10231",1 µg/mL
same,MIC,"Candida albicans; Candida albicans, ATCC10231, C. albicans ATCC 10231, read-out: MIC",1 µg/mL
same,MIC,"Candida albicans; Candida albicans, C. albicans NR-29448 (fluconazole-resistant), read-out: MIC",1 µg/mL
same,MIC,"Candida albicans; Candida albicans, C. albicans SS5314 (wild-type), read-out: MIC",1 µg/mL
same,MFC,"Candida albicans; Candida albicans, C. albicans NR-29448",2 µg/mL
same,MFC,Candida auris [4]; Candida auris 390,2 µg/mL
same,MIC,"Candida auris [4]; Candidozyma auris, C. auris 381, read-out: MIC",1 µg/mL
same,MIC,"Candida auris [4]; Candidozyma auris, C. auris 382, read-out: MIC",1 µg/mL
same,MIC,"Candida auris [4]; Candidozyma auris, C. auris 383, read-out: MIC",1 µg/mL
same,MIC,"Candida auris [4]; Candidozyma auris, C. auris 384, read-out: MIC",1 µg/mL
same,MIC,"Candida auris [4]; Candidozyma auris, C. auris 385, read-out: MIC",1 µg/mL
same,MIC,"Candida auris [4]; Candidozyma auris, C. auris 386, read-out: MIC",2 µg/mL
same,MIC,"Candida auris [4]; Candidozyma auris, C. auris 387, read-out: MIC",1 µg/mL
same,MIC,"Candida auris [4]; Candidozyma auris, C. auris 388, read-out: MIC",2 µg/mL
same,MIC,"Candida auris [4]; Candidozyma auris, C. auris 389, read-out: MIC",2 µg/mL
same,MIC,"Candida auris [4]; Candidozyma auris, C. auris 390, read-out: MIC",2 µg/mL
same,MFC,"Candida auris [4]; Candidozyma auris, Candida auris 389, read-out: MFC",2 µg/mL
same,MIC,"Candida krusei; Pichia kudriavzevii, ATCC34135, C. krusei ATCC 34135, read-out: MIC",2 µg/mL
same,MFC,"Candida krusei; Pichia kudriavzevii, C. krusei CAB 396420",2 µg/mL
same,MIC,"Candida krusei; Pichia kudriavzevii, C. krusei CAB 396420, read-out: MIC",2 µg/mL
same,MFC,"Candida tropicalis; Candida tropicalis, ATCC1369",2 µg/mL
same,MIC,"Candida tropicalis; Candida tropicalis, ATCC1369, read-out: MIC",1 µg/mL
same,MIC,"[5]; Lacticaseibacillus casei, ATCC334, read-out: MIC",> 128 µg/mL
same,MIC,"[6]; HM370, read-out: MIC",> 128 µg/mL
same,MIC,"[7]; HM400, read-out: MIC",> 128 µg/mL
same,MIC,"Cryptococcus gattii; Cryptococcus gattii, C. gattii NR 43209, read-out: MIC",1 µg/mL
same,MIC,"Cryptococcus gattii; Cryptococcus gattii, C. gattii NR 43210, read-out: MIC",0.5 µg/mL
same,MIC,"Cryptococcus neoformans; Cryptococcus neoformans, C. neoformans NR 41298, read-out: MIC",1 µg/mL
same,MIC,"Cryptococcus neoformans; Cryptococcus neoformans, C. neoformans NR 41300, read-out: MIC",1 µg/mL
same,MIC,"Cryptococcus neoformans; Cryptococcus neoformans, C. neoformans NR 48770, read-out: MIC",0.5 µg/mL
same,MIC,"Candida parapsilosis; Lodderomyces parapsilosis, ATCC22019, C. parapsilosis ATCC 22019, read-out: MIC",0.5 µg/mL
same,MIC,"Candida parapsilosis; Lodderomyces parapsilosis, C. parapsilosis CAB 502638, read-out: MIC",0.5 µg/mL
same,fungistatic or fungicidal activity,Candida strains,fungicidal
same,Interpretation of interaction,Candida auris [10]; [11],ADD (FICI values of >0.5–1.25 were categorized as additive (ADD))
same,"MIC Combined, Antifungal",Candida auris [10]; [11],1 µg/mL
same,Interpretation of interaction,Candida auris [10]; [12],ADD (FICI values of >0.5–1.25 were categorized as additive (ADD))
same,"MIC Combined, Antifungal",Candida auris [10]; [12],1 µg/mL
same,MIC,Candida auris [10]; [11],1 µg/mL
same,MIC,Candida auris [10]; [12],1 µg/mL
